The source made the active and inactive calls.
System: BJ
Test: cytotoxicity toward BJ-TERT-LT-ST fibroblasts, dose response, cell-based, RAS-independent, luminescence (AID 1935);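 also: BJ fibroblasts immortalized with TERT plus LT and ST oncogenes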
Format: functional
Conditions: Homo sapiens

Compound | EC50
O=C(CCCCCCCCCCC(=O)NCc1cccnc1)NCc1cccnc1 | > 150 µM (inconclusive)

Target: T1, Caspase-3 (Homo sapiens, UniProt P42574);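 also: Dose-response selectivity test against caspase-3 for candidate inhibitors of sentrin-specific proteases (SENPs)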
T1 sequence (P42574 whole entry): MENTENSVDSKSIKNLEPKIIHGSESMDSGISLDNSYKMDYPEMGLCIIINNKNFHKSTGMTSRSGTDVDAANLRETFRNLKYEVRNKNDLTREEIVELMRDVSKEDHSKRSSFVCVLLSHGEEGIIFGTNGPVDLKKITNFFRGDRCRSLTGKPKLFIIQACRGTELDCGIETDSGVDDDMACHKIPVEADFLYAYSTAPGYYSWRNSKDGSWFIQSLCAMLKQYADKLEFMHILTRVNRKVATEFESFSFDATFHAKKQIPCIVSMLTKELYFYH
Test: not given
Format: functional
Conditions: not given

IC50 | Compound
22.8 µM (active) | CCOC(=O)c1ccc(-c2ccc3c(c2)CCC3)nc1C
19.7 µM (active) | CC(C)Oc1ccc2c(=O)c(-c3ccccc3)coc2c1 [IPRIFLAVONE]
1.5 µM (active) | CCOc1ccc(/C=C2\CCc3ccccc3C2=O)cc1

Second part, the molecule before the results:

Compound | IC50
Cc1ccc(C(=O)Nc2ccc3c(c2)OCO3)cc1Cl | 13.4 µM (active)
O=C(Nc1nnc(C(F)(F)F)s1)c1ccc(Br)s1 | 18.8 µM (active)

Target: T2, Fatty acid synthase (Homo sapiens, UniProt P49327)
Test: FAS thioesterase domain inhibitors, dose response, biochemical, endpoint fluorescence intensity, uHTS hits (AID 624327);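 also: fluorescence from hydrolysis of an O-methyl fluorescein acyl ester substrate by the enzyme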
Format: functional
Conditions: not given

T2 sequence (P49327 whole entry, the tested form may be a part): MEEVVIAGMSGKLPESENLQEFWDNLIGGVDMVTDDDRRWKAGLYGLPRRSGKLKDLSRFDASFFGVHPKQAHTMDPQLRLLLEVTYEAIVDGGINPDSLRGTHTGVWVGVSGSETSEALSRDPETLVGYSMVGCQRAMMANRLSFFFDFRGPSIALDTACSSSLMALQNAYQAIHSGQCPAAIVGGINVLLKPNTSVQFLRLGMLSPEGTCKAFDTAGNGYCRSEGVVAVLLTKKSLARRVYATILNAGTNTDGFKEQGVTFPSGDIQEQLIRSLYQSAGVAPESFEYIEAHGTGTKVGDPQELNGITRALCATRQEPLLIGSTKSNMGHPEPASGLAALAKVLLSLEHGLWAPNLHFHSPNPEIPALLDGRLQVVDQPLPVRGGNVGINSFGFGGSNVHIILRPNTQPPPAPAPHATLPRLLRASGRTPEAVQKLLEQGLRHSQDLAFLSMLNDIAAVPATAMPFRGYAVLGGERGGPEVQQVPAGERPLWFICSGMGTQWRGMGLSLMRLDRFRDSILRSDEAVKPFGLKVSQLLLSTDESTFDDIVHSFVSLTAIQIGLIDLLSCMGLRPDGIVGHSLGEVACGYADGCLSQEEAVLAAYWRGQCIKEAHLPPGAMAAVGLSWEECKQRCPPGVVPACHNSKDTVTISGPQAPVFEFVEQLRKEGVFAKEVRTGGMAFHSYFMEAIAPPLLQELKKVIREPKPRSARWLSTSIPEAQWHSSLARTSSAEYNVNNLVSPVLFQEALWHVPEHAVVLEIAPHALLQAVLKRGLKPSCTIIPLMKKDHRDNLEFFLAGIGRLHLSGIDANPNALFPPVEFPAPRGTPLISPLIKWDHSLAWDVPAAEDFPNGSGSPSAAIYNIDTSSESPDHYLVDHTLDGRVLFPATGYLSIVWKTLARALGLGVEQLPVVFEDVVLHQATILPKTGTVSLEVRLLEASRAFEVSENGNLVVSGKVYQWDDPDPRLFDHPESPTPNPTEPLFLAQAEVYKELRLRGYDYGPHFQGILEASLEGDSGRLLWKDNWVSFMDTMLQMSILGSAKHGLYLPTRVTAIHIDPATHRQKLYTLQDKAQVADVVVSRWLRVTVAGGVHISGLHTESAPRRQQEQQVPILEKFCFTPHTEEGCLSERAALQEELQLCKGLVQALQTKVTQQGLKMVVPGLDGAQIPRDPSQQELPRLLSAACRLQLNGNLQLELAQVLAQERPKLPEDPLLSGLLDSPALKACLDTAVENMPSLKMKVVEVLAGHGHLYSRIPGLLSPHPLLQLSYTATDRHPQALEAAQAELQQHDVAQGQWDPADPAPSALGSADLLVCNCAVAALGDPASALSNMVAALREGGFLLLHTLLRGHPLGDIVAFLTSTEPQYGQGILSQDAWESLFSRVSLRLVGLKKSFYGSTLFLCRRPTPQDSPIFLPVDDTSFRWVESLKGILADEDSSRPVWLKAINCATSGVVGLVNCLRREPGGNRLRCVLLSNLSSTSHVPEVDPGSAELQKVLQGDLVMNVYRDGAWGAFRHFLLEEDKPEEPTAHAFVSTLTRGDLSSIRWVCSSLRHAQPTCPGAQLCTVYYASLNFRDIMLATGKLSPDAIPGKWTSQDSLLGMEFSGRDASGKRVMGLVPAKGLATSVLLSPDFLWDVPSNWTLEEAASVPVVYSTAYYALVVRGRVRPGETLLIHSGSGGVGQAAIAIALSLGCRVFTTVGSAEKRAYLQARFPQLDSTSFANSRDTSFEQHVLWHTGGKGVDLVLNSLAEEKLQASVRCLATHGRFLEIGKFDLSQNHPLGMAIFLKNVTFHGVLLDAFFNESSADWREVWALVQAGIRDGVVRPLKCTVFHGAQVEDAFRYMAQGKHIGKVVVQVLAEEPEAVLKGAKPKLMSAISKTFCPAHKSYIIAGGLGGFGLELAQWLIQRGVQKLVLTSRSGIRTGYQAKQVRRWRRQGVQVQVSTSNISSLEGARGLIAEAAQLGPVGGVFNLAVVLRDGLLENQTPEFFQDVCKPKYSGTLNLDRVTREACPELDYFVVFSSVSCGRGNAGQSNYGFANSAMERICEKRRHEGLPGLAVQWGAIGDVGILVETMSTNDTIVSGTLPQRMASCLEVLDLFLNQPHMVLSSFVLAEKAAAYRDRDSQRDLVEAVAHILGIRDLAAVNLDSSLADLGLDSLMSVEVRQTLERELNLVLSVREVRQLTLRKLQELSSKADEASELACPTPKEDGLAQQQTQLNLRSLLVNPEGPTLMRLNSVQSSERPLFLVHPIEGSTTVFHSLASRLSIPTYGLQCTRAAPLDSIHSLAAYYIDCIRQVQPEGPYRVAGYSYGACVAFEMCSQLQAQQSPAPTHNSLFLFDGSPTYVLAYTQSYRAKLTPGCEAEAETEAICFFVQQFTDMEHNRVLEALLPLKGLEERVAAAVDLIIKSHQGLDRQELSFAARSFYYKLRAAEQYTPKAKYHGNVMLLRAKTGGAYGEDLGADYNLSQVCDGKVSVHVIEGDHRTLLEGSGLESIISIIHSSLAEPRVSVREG

IC50 | Compound
61.3 µM (inactive) | COc1cc(CNc2nc(C)c([N+](=O)[O-])c(C)c2C#N)cc(OC)c1OC
9.71 µM (active) | CCOC(=O)c1c(NC(=O)CSc2nnc(-c3ccccc3C)n2C)sc(C(C)=O)c1C
13.7 µM (active) | Cc1ccc([N+](=O)[O-])cc1S(=O)(=O)Nc1ccc(-c2ccc(N3CCCC3)nn2)cc1
4.32 µM (active) | CC1CCc2c(sc3nc(CN4CCN(S(=O)(=O)c5ccccc5[N+](=O)[O-])CC4)nc(O)c23)C1 (stereo not drawn)

System: BJ
Test: cells
Format: functional, cell-based
Conditions: Homo sapiens

Compound | EC50
O=C(CCCCCCCCCCC(=O)NCc1cccnc1)NCc1cccnc1 | 1.85 µM (inconclusive)

Target: T3, Sentrin-specific protease 6 (Homo sapiens, UniProt Q9GZR1);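 also: Luminescence-based dose-response confirmatory assay of SENP6 inhibition, following up an ultra-high-throughput screen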
T3 sequence (Q9GZR1 whole entry): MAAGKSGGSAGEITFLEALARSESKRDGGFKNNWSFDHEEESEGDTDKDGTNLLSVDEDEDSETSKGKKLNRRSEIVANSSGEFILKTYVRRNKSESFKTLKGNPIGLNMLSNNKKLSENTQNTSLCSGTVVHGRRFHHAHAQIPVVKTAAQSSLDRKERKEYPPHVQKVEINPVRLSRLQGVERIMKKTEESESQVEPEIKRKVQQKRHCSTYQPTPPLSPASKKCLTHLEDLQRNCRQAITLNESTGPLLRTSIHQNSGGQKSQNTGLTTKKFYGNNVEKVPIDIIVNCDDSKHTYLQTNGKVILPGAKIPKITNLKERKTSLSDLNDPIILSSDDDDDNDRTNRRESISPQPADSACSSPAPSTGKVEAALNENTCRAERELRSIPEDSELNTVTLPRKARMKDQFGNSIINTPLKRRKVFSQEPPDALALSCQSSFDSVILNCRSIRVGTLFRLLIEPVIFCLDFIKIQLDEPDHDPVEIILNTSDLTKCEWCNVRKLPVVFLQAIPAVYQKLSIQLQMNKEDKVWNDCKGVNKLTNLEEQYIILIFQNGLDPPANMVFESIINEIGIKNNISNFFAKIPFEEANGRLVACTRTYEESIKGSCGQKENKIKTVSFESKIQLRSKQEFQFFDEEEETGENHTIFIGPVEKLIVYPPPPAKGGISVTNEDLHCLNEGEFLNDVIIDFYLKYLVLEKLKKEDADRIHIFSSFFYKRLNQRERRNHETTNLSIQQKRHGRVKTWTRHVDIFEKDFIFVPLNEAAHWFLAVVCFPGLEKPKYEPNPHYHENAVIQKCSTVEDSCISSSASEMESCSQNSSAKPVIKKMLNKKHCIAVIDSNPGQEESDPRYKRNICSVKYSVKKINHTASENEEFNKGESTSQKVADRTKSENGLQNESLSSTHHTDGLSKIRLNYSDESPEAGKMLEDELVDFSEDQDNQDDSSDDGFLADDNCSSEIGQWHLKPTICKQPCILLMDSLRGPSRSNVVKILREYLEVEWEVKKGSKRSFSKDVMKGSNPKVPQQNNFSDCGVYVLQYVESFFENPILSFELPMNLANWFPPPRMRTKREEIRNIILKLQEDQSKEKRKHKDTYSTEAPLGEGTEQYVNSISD
Test: not given
Format: functional
Conditions: not given

IC50 | Compound
26.3 µM (active) | CCOC(=O)c1ccc(-c2ccc3c(c2)CCC3)nc1C
57.2 µM (active) | CC(C)Oc1ccc2c(=O)c(-c3ccccc3)coc2c1 [IPRIFLAVONE]
1.42 µM (active) | CCOc1ccc(/C=C2\CCc3ccccc3C2=O)cc1

Second part, the molecule before the results:

Compound | IC50
Cc1ccc(C(=O)Nc2ccc3c(c2)OCO3)cc1Cl | > 100 µM (inactive)
O=C(Nc1nnc(C(F)(F)F)s1)c1ccc(Br)s1 | 22.6 µM (active)

Target: T4, Sentrin-specific protease 8 (Homo sapiens, UniProt Q96LD8);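 also: luminescence read-out of SENP8 inhibition, dose-response confirmation following an ultra-high-throughput screen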
T4 sequence (Q96LD8 whole entry): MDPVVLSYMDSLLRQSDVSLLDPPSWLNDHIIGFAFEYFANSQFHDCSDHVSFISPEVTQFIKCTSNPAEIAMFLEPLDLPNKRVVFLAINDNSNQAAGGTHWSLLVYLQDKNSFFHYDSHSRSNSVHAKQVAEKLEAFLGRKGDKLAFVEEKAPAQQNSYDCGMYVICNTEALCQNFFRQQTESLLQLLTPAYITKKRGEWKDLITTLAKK
Test: not given
Format: functional
Conditions: not given

Compound | IC50
CCOC(=O)c1ccc(-c2ccc3c(c2)CCC3)nc1C | 45.2 µM (active)
Cc1ccc(C(=O)Nc2ccc3c(c2)OCO3)cc1Cl | > 100 µM (inactive)
CC(C)Oc1ccc2c(=O)c(-c3ccccc3)coc2c1 [IPRIFLAVONE] | 94.8 µM (active)
O=C(Nc1nnc(C(F)(F)F)s1)c1ccc(Br)s1 | 24.1 µM (active)
CCOc1ccc(/C=C2\CCc3ccccc3C2=O)cc1 | 1.88 µM (active)

System: BJ
Test: cytotoxicity toward BJ-TERT fibroblasts, dose response, cell-based, RAS-independent, luminescence (AID 1933)
Format: functional
Conditions: Homo sapiens

Compound | EC50
O=C(CCCCCCCCCCC(=O)NCc1cccnc1)NCc1cccnc1 | > 75 µM (not active)

Target: T5, Sentrin-specific protease 7 (Homo sapiens, UniProt Q9BQF6);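 also: Luminescence-based dose-response confirmation of ultra-high-throughput screening hits, measuring inhibition of SENP7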
T5 sequence (Q9BQF6 whole entry): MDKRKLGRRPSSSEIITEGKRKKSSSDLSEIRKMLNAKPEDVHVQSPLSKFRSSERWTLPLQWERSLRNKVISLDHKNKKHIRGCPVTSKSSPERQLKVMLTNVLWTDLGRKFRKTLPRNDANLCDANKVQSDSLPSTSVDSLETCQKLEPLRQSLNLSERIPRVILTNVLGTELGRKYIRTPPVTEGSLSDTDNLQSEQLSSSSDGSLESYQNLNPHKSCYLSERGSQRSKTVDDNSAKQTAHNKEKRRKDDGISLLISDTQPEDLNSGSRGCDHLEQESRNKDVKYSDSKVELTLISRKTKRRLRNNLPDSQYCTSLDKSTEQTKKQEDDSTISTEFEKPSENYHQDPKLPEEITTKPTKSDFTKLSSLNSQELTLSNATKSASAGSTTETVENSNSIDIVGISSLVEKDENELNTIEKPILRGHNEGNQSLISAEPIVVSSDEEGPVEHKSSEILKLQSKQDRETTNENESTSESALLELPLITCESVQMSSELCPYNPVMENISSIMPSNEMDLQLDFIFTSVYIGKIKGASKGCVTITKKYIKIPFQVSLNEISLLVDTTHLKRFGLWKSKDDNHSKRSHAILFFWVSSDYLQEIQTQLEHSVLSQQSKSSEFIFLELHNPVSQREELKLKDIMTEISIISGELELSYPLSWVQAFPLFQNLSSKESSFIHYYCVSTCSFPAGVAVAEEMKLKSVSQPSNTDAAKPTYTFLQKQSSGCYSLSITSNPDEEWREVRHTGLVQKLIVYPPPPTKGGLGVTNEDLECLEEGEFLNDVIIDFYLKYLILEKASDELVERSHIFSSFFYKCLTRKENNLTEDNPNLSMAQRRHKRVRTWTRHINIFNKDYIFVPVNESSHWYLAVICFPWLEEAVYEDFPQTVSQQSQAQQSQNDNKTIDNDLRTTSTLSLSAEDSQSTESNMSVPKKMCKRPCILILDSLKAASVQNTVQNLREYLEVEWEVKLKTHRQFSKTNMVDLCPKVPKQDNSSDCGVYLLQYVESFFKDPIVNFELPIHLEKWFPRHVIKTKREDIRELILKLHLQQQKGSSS
Test: not given
Format: functional
Conditions: not given

IC50 | Compound
6.3 µM (active) | CCOC(=O)c1ccc(-c2ccc3c(c2)CCC3)nc1C
5.35 µM (active) | CC(C)Oc1ccc2c(=O)c(-c3ccccc3)coc2c1 [IPRIFLAVONE]
1.22 µM (active) | CCOc1ccc(/C=C2\CCc3ccccc3C2=O)cc1

The next lines start with the molecule.

Compound | IC50
Cc1ccc(C(=O)Nc2ccc3c(c2)OCO3)cc1Cl | 5.94 µM (active)
O=C(Nc1nnc(C(F)(F)F)s1)c1ccc(Br)s1 | 15.5 µM (active)

System: BJ
Test: cytotoxicity toward Ras-transformed BJeLR fibroblasts, dose response, cell-based, alamar blue fluorescence, cherrypicked samples (AID 2631);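 also: confirmatory dose-response assay in RAS-dependent BJ fibroblasts engineered with TERT, LT and ST, with cytotoxicity read by fluorescence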
Format: functional
Conditions: Homo sapiens

Compound | EC50
O=C(CCCCCCCCCCC(=O)NCc1cccnc1)NCc1cccnc1 | > 133 µM (inactive)

Target: T2, Fatty acid synthase
Test: FAS thioesterase domain inhibitors, dose response, biochemical, kinetic fluorescence intensity (AID 624326);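 also: rate of fluorescence rise from hydrolysis of a fluorogenic O-methyl fluorescein ester substrate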
Format: functional
Conditions: not given

IC50 | Compound
80 µM (inactive) | COc1cc(CNc2nc(C)c([N+](=O)[O-])c(C)c2C#N)cc(OC)c1OC
3.03 µM (active) | CCOC(=O)c1c(NC(=O)CSc2nnc(-c3ccccc3C)n2C)sc(C(C)=O)c1C
8.02 µM (active) | Cc1ccc([N+](=O)[O-])cc1S(=O)(=O)Nc1ccc(-c2ccc(N3CCCC3)nn2)cc1
4.55 µM (active) | CC1CCc2c(sc3nc(CN4CCN(S(=O)(=O)c5ccccc5[N+](=O)[O-])CC4)nc(O)c23)C1 (stereo not drawn)

System: not listed separately
Test: cytotoxicity toward DRD oncogenic fibroblasts, dose response, cell-based, non-viral oncogenic, luminescence (AID 1934)
Format: functional
Conditions: Homo sapiens

Compound | EC50
O=C(CCCCCCCCCCC(=O)NCc1cccnc1)NCc1cccnc1 | > 150 µM (not active)

Reference: ChEMBL document CHEMBL1201862, “PubChem BioAssay data set” (2004)
